Like-named read-outs stand apart in the source and are kept apart here.
Assays:
[1] = molecular target: BTK (Homo sapiens (Human), UniProt Q06187); assay: In Vitro BTK Kinase Assay: Btk-PolyGAT-LS Assay; assay type: biochemical; conditions: BTK enzyme 0.25 nM, ATP 10 μM, polyGAT 100 nM, 30 minutes incubation, TRF readout; read-out: IC50
Procedure, shortened: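 Human BTK activity was measured with final 10 μM ATP and 100 nM polyGAT substrate in pH 7.5 Tris buffer with 10 mM MgCl2, DTT, Triton X-100 and casein.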

[2] = system: CD69 expression on CD19+ B cells in human whole blood stimulated with anti-human IgD; assay: In Vitro whole blood CD69 Assay; assay type: cell-based; conditions: human heparinized whole blood, anti-human IgD stimulation overnight, percentage of CD19+ B cells expressing CD69, flow cytometry, read-out: IC50

BTK, sequence (Q06187 whole entry): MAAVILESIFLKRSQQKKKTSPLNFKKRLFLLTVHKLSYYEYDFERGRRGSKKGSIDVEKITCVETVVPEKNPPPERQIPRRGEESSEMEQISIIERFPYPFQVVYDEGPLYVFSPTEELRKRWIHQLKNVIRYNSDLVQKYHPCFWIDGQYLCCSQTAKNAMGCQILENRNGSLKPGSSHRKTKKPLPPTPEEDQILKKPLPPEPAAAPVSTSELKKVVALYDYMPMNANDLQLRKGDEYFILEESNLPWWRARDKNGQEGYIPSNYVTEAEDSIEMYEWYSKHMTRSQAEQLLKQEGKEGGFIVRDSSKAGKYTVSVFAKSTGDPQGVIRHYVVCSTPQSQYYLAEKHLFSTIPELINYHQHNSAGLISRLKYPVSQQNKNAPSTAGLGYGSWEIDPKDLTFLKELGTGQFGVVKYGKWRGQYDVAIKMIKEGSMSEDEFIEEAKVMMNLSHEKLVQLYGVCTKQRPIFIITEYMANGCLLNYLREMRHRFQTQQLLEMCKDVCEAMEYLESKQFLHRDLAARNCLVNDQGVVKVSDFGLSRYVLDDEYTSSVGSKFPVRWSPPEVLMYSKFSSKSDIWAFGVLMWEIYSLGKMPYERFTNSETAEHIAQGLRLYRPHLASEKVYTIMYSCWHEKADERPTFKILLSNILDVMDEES

SMILES: C=CC(=O)N1CC[C@@H]2[C@H]1C(C)(C)[C@H]2Oc1nc(-c2cnn(C)c2)cn2nccc12 [Example 170, 1-((1S,5R,6S)-7,7-dimethyl-6-((6-(1-methyl-1H-pyrazol-4-yl)pyrazolo[1,5-a]pyrazin-4-yl)oxy)-2-azabicyclo[3.2.0]heptan-2-yl)prop-2-en-1-one]
- IC50 [1]: 10 to 1000 nM
- IC50 ([2]; Homo sapiens, B-cell): 1000 to 10000 nM

SMILES: C=CC(=O)N1CCC[C@@H](Oc2nc(-c3cnn(C)c3)cn3ncc(C#N)c23)CC1 [Example 59, (R)-4-((1-acryloylazepan-4-yl)oxy)-6-(1-methyl-1H-pyrazol-4-yl)pyrazolo[1,5-a]pyrazine-3-carbonitrile]
- IC50 [1]: < 1 nM
- IC50 ([2]; Homo sapiens, B-cell): < 1000 nM

SMILES: C=CC(=O)NCC1CCCCN1c1nc(-c2cnn(C)c2)cn2nccc12 (stereo not drawn) [Example 27, N-[[1-[6-(1-methylpyrazol-4-yl)pyrazolo[1,5-a]pyrazin-4-yl]-2-piperidyl]methyl]prop-2-enamide]
- IC50 [1]: 10 to 1000 nM
- IC50 ([2]; Homo sapiens, B-cell): 1000 to 10000 nM

SMILES: C=CC(=O)N1CCCC[C@@H](Oc2nc(-c3cnn(C)c3)cn3nccc23)C1 [Example 56, 1-[(3R)-3-[6-(1-methylpyrazol-4-yl)pyrazolo[1,5-a]pyrazin-4-yl]oxyazepan-1-yl]prop-2-en-1-one]
- IC50 [1]: 1 to 10 nM
- IC50 ([2]; Homo sapiens, B-cell): > 10000 nM

SMILES: C=CC(=O)N1CCOCC1CCOc1cc(-c2cnn(C)c2)cn2nccc12 (stereo not drawn) [Example 81, 1-(3-(2-((6-(1-methyl-1H-pyrazol-4-yl)pyrazolo[1,5-a]pyridin-4-yl)oxy)ethyl)morpholino)prop-2-en-1-one]
- IC50 [1]: 1 to 10 nM
- IC50 ([2]; Homo sapiens, B-cell): 1000 to 10000 nM

SMILES: Cn1cc(-c2cn3nccc3c(O[C@]3(C)C[C@H](NC(=O)/C=C/C(F)(F)F)C3)n2)cn1 [Example 231, (E)-4,4,4-trifluoro-N-((1s,3s)-3-methyl-3-((6-(1-methyl-1H-pyrazol-4-yl)pyrazolo[1,5-a]pyrazin-4-yl)oxy)cyclobutyl)but-2-enamide]
- IC50 [1]: < 1 nM
- IC50 ([2]; Homo sapiens, B-cell): < 1000 nM

SMILES: C=CS(=O)(=O)N1CCC[C@@H](Oc2nc(-c3cnn(C)c3)cn3nccc23)CC1 [Example 28, (R)-6-(1-methyl-1H-pyrazol-4-yl)-4-((1-(vinylsulfonyl)azepan-4-yl)oxy)pyrazolo[1,5-a]pyrazine]
- IC50 [1]: < 1 nM
- IC50 ([2]; Homo sapiens, B-cell): < 1000 nM

SMILES: C=CC(=O)N[C@H]1C[C@@](C)(Oc2nc(-c3cnn(C)c3)cn3ncc(C4CC4)c23)C1 [Example 166, N-((cis)-3-((3-cyclopropyl-6-(1-methyl-1H-pyrazol-4-yl)pyrazolo[1,5-a]pyrazin-4-yl)oxy)-3-methylcyclobutyl)acrylamide]
- IC50 [1]: < 1 nM
- IC50 ([2]; Homo sapiens, B-cell): < 1000 nM

SMILES: C=CC(=O)N1CCO[C@](C)(COc2nc(-c3cnn(C)c3)cn3nccc23)C1 (single isomer, unassigned) [Example 117, (S) or (R)-1-(2-methyl-2-(((6-(1-methyl-1H-pyrazol-4-yl)pyrazolo[1,5-a]pyrazin-4-yl)oxy)methyl)morpholino)prop-2-en-1-one]
- IC50 [1]: 1 to 10 nM
- IC50 ([2]; Homo sapiens, B-cell): < 1000 nM

SMILES: C=CC(=O)NC1CCCN(c2nc(-c3cnn(C)c3)cn3nccc23)C1 (stereo not drawn) [Example 20, N-[1-[6-(1-methylpyrazol-4-yl)pyrazolo[1,5-a]pyrazin-4-yl]-3-piperidyl]prop-2-enamide]
- IC50 [1]: 10 to 1000 nM
- IC50 ([2]; Homo sapiens, B-cell): > 10000 nM

SMILES: C=CC(=O)N(C)[C@H]1C[C@@](C)(Oc2nc(-c3cnn(C)c3)cn3ncc(F)c23)C1 [Example 211, N-((1s,3s)-3-((3-fluoro-6-(1-methyl-1H-pyrazol-4-yl)pyrazolo[1,5-a]pyrazin-4-yl)oxy)-3-methylcyclobutyl)-N-methylacrylamide]
- IC50 [1]: < 1 nM
- IC50 ([2]; Homo sapiens, B-cell): < 1000 nM

SMILES: C#CC(=O)N1CCC[C@@H](Oc2nc(-c3cnn(C)c3)cn3nccc23)C1 [Example 7, (R)-1-(3-((6-(1-methyl-1H-pyrazol-4-yl)pyrazolo[1,5-a]pyrazin-4-yl)oxy)piperidin-1-yl)prop-2-yn-1-one]
- IC50 [1]: < 1 nM
- IC50 ([2]; Homo sapiens, B-cell): 1000 to 10000 nM

SMILES: C=CC(=O)N1C[C@H]2C[C@@H](Oc3nc(-c4cnn(C)c4)cn4ncc(C)c34)[C@H]2C1 [Example 197, 1-((1S,5R,6R)-6-((3-methyl-6-(1-methyl-1H-pyrazol-4-yl)pyrazolo[1,5-a]pyrazin-4-yl)oxy)-3-azabicyclo[3.2.0]heptan-3-yl)prop-2-en-1-one]
- IC50 [1]: < 1 nM
- IC50 ([2]; Homo sapiens, B-cell): < 1000 nM

SMILES: C=CC(=O)Nc1cccc(Oc2nc(-c3cnn(C)c3)cc3nccn23)c1 [Example 43]
- IC50 [1]: 1 to 10 nM
- IC50 ([2]; Homo sapiens, B-cell): < 1000 nM

SMILES: C=CC(=O)N(CC(F)F)[C@H]1CC[C@@H](Oc2nc(-c3cnn(C)c3)cn3nccc23)C1 [Example 146, N-(2,2-difluoroethyl)-N-((1S,3R)-3-((6-(1-methyl-1H-pyrazol-4-yl)pyrazolo[1,5-a]pyrazin-4-yl)oxy)cyclopentyl)acrylamide]
- IC50 [1]: < 1 nM
- IC50 ([2]; Homo sapiens, B-cell): < 1000 nM

SMILES: C=CC(=O)N1[C@@H]2CC[C@H]1[C@@H](Oc1nc(-c3cnn(C)c3)cn3nccc13)C2 [Example 235, 1-((1S,2S,4R)-2-((6-(1-methyl-1H-pyrazol-4-yl)pyrazolo[1,5-a]pyrazin-4-yl)oxy)-7-azabicyclo[2.2.1]heptan-7-yl)prop-2-en-1-one]
- IC50 [1]: < 1 nM
- IC50 ([2]; Homo sapiens, B-cell): < 1000 nM

SMILES: CN(C(=O)/C=C/C#N)[C@H]1CC[C@@H](Oc2nc(-c3cnn(C)c3)cn3nccc23)C1 (racemic) [Example 150, rac-(E)-3-cyano-N-methyl-N-((1R,3S)-3-((6-(1-methyl-1H-pyrazol-4-yl)pyrazolo[1,5-a]pyrazin-4-yl)oxy)cyclopentyl)acrylamide]
- IC50 [1]: < 1 nM
- IC50 ([2]; Homo sapiens, B-cell): < 1000 nM

SMILES: C=CS(=O)(=O)N1CCC(CNc2nc(-c3cnn(C)c3)cn3nccc23)CC1 [Example 19, 6-(1-methyl-1H-pyrazol-4-yl)-N-((1-(vinylsulfonyl)piperidin-4-yl)methyl)pyrazolo[1,5-a]pyrazin-4-amine]
- IC50 [1]: < 1 nM
- IC50 ([2]; Homo sapiens, B-cell): < 1000 nM

SMILES: C=CC(=O)N1CCC[C@@H](Oc2nc(-c3cnn(C)c3)cn3ncc(C(F)(F)F)c23)CC1 [Example 62, 1-[(4R)-4-[6-(1-methylpyrazol-4-yl)-3-(trifluoromethyl)pyrazolo[1,5-a]pyrazin-4-yl]oxyazepan-1-yl]prop-2-en-1-one]
- IC50 [1]: 1 to 10 nM
- IC50 ([2]; Homo sapiens, B-cell): 1000 to 10000 nM

SMILES: C=CC(=O)N(C)[C@H]1C[C@@](Oc2nc(-c3cnn(C)c3)cn3nccc23)(C2CC2)C1 [Example 104, N—((1r,3r)-3-cyclopropyl-3-((6-(1-methyl-1H-pyrazol-4-yl)pyrazolo[1,5-a]pyrazin-4-yl)oxy)cyclobutyl)-N-methylacrylamide]
- IC50 [1]: 10 to 1000 nM
- IC50 [2]: 1000 to 10000 nM

SMILES: C=CC(=O)N1CCC[C@@H](Oc2nc(-c3ccc(=O)n(C)c3)cn3nccc23)CC1 (single isomer, unassigned) [Example 71 E2]
- IC50 [1]: 10 to 1000 nM
- IC50 ([2]; Homo sapiens, B-cell): 1000 to 10000 nM

SMILES: C=CC(=O)N(CC(F)F)[C@H]1C[C@@](C)(Oc2nc(-c3cnn(C)c3)cn3nccc23)C1 [Example 226, N-(2,2-difluoroethyl)-N-((1s,3s)-3-methyl-3-((6-(1-methyl-1H-pyrazol-4-yl)pyrazolo[1,5-a]pyrazin-4-yl)oxy)cyclobutyl)acrylamide]
- IC50 [1]: < 1 nM
- IC50 ([2]; Homo sapiens, B-cell): < 1000 nM

SMILES: C[C@@H]1O[C@H]1C(=O)N1CC[C@@H]2[C@H]1C[C@@]2(C)Oc1nc(-c2cnn(C)c2)cn2nccc12 [Example 192, ((1R,5R,6R)-6-methyl-6-((6-(1-methyl-1H-pyrazol-4-yl)pyrazolo[1,5-a]pyrazin-4-yl)oxy)-2-azabicyclo[3.2.0]heptan-2-yl)((2R,3S)-3-methyloxiran-2-yl)methanone]
- IC50 [1]: 10 to 1000 nM
- IC50 ([2]; Homo sapiens, B-cell): 1000 to 10000 nM

SMILES: C#CC(=O)N1CCC[C@@H](Oc2nc(-c3cnn(C)c3)cn3nccc23)CC1 [Example 30, (R)-1-(4-((6-(1-methyl-1H-pyrazol-4-yl)pyrazolo[1,5-a]pyrazin-4-yl)oxy)azepan-1-yl)prop-2-yn-1-one]
- IC50 [1]: < 1 nM
- IC50 ([2]; Homo sapiens, B-cell): < 1000 nM

SMILES: CC#CC(=O)N(C)[C@H]1CC[C@H]2C[C@@]2(Oc2nc(-c3cnn(C)c3)cn3nccc23)C1 (single isomer, unassigned) [Example 116]
- IC50 [1]: < 1 nM
- IC50 ([2]; Homo sapiens, B-cell): < 1000 nM

SMILES: C=CC(=O)N(C)[C@H]1C[C@H](Oc2nc(-c3cnn(C)c3)cn3ncc(C)c23)C1 [Example 60, N-methyl-N-((trans)-3-((3-methyl-6-(1-methyl-1H-pyrazol-4-yl)pyrazolo[1,5-a]pyrazin-4-yl)oxy)cyclobutyl)acrylamide]
- IC50 [1]: < 1 nM
- IC50 ([2]; Homo sapiens, B-cell): > 10000 nM

SMILES: CC#CC(=O)N1CC2(C1)CC(C)(Oc1nc(-c3cnn(C)c3)cn3ncc(F)c13)C2 [Example 86, 1-(6-((3-fluoro-6-(1-methyl-1H-pyrazol-4-yl)pyrazolo[1,5-a]pyrazin-4-yl)oxy)-6-methyl-2-azaspiro[3.3]heptan-2-yl)but-2-yn-1-one]
- IC50 [1]: 1 to 10 nM
- IC50 ([2]; Homo sapiens, B-cell): < 1000 nM

SMILES: C=CC(=O)N1C[C@H]2C[C@H](Oc3nc(-c4cnn(C)c4)cn4nccc34)C[C@H]2C1 [Example 174, 1-((3aR,5s,6aS)-5-((6-(1-methyl-1H-pyrazol-4-yl)pyrazolo[1,5-a]pyrazin-4-yl)oxy)hexahydrocyclopenta[c]pyrrol-2(1H)-yl)prop-2-en-1-one]
- IC50 [1]: < 1 nM
- IC50 ([2]; Homo sapiens, B-cell): < 1000 nM

SMILES: Cn1cc(-c2cn3nccc3c(O[C@]3(C)C[C@H](N(C)C(=O)/C=C/C(F)(F)F)C3)n2)cn1 [Example 232, (E)-4,4,4-trifluoro-N-methyl-N-((1s,3s)-3-methyl-3-((6-(1-methyl-1H-pyrazol-4-yl)pyrazolo[1,5-a]pyrazin-4-yl)oxy)cyclobutyl)but-2-enamide]
- IC50 [1]: < 1 nM
- IC50 ([2]; Homo sapiens, B-cell): < 1000 nM

SMILES: C=CC(=O)N1CCCC(Oc2nc(-c3cnn(C)c3)cn3ncnc23)CC1 (stereo not drawn) [Example 57, 1-(4-((6-(1-methyl-1H-pyrazol-4-yl)-[1,2,4]triazolo[1,5-a]pyrazin-8-yl)oxy)azepan-1-yl)prop-2-en-1-one]
- IC50 [1]: 1 to 10 nM
- IC50 ([2]; Homo sapiens, B-cell): 1000 to 10000 nM
